Results published in patent US12329158B2, “Large-scale methods of uniformly coating packaging surfaces with a volatile antimicrobial to preserve food freshness” (AGROFRESH INC., priority 2013, dated 2025).
Converted amounts (≈) assume the structure as drawn.

Assays:
[1] = tested on: Botrytis cinerea; experiment: Clamshells treated by sublimation; strawberries (Example 5); assay type: in vivo; conditions: 5 mg
Method: Five milligrams of Compound A was dissolved in 1 ml of ethanol prior to being uniformly administered to the interior of the clamshell by painting or spraying, and then dried for 5 minutes. After coating the clamshells with Compound A using various application techniques (i.e., sublimation, spraying, or painting), eight ethanol-washed strawberries were placed in the clamshell with stem end facing downwards. Each strawberry fruit was wounded using a T15 screwdriver tip to a uniform depth of eight mm (8 mm). […] Uninoculated strawberries were removed from their commercial package, and directly transferred into treated clamshells without any washing or inoculation steps.
Treated clamshells lids were closed, and then placed at 1° C. for an initial time period of 5 days. Clamshells were then removed from low temperature, and held for a second time period of 6 days at room temperature where the point of inoculation on the strawberry fruits was assessed for indication of disease incidence reported as a percentage (%). Severity of disease incidence was also reported.
This in vivo assay was used to evaluate the ability of Compound A to volatilize from a clamshell in order to control or inhibit fruit infection by pathogenic microorganism, Botrytis cinerea. This experiment was conducted exactly as described in Example 1, with a few exceptions. After equilibrating the clamshell overnight at 21° C., Compound A was administered to the clamshell by sublimation only. Compound A was sublimed onto the surface of the clamshell at a final treatment rate of 5 mg/clamshell. Strawberries were inoculated with Botrytis cinerea, placed within the clamshell for an initial time period of 6 days, and assessed for disease incidence and severity over a second time period of 7 days as described in Example 1.

[2] = tested on: Botrytis cinerea; experiment: Volatile release from materials treated by sublimation (Example 14); assay type: cell-based
Method: An in vitro assay is used to evaluate the ability of compound A to volatilize from different materials and control fungal growth. Cardboard box (Category 1), PET plastic (Polyethylene terepthalate—PET) and Polyethylene are used. The materials are cut into equal dimensions (10×19 cm^2) and placed inside a 36-L acrylic desiccator cabinet (Fisher Scientific, cat no. 08-642-23C) in duplicate.
The acetone is allowed to evaporate for 1 minute at 60° C. Compound A is then introduced as a gas into the cabinets by a sublimation device (copper tube heated to 180° C. with fan flow at 0.5 L/min) to achieve a final headspace concentration of 0.3, 0.06 and 0.012 mg/L). The chambers are then incubated at 23° C. for 24 hours, then treated materials are carefully removed and placed inside a clean 10.8 cup SnapWare airtight container (Model #109842) containing a 10-cm diameter Petri dish with PDA and inoculated with 1 μL of […] of B. cinerea. The containers are then tightly sealed for 3 days at 23° C. After 3 days of storage, cultures are evaluated for percent growth relative to control.

[3] = tested on: B. cinerea; experiment: In vitro contact assay, amended agar (Example 24); assay type: cell-based; conditions: Botrytis cinerea, 72 h; amended agar; 100% control; 3 days at 23 C; read-out: Contact MIC (mg/L) B. cinerea
Method: (§1) Contact assay: 6-well (16.5 mL volume per well) microtiter plates are used for an in vitro inhibition assay. […] A 7.5-mL volume of the amended media is added to each well of the microtiter plate. […] The plates are sealed with a clear film and incubated for 3 days at 23° C. After incubation, plates are evaluate for percent growth relative to acetone only control.

[4] = tested on: P. expansum; experiment: In vitro contact assay, amended agar (Example 24); assay type: cell-based; conditions: Penicillium expansum, 72 h; amended agar; 100% control; 3 days at 23 C; read-out: Contact MIC (mg/L) P. expansum
Method: as §1

[5] = tested on: Epidermophyton floccus; experiment: In vitro contact assay (Example 26); assay type: cell-based; conditions: Epidermophyton, 120 h, 5 days at 28 C, 100% control, read-out: MIC (mg/L) Epidermophyton floccus
Method: (§2) Half-strength Potato Dextrose Agar (PDA) is amended with a mixture of one of the test compounds in acetone or methanol to a final concentration of 50, 10, 2, 0.4 or 0.08 mg/L. A 3-mL volume of the amended media is added to each well of the microtiter plate. […] The plates are sealed with a clear film and incubated inverted for 5 days at 28° C.

[6] = tested on: Trichophyton mentagrophytes; experiment: In vitro contact assay (Example 26); assay type: cell-based; conditions: Trichophyton mentagrophytes, 120 h, 5 days at 28 C, 100% control, read-out: MIC (mg/L) Trichophyton mentagrophytes
Method: as §2

[7] = tested on: Trichophyton rubrum; experiment: In vitro contact assay (Example 26); assay type: cell-based; conditions: Trichophyton rubrum, 120 h, 5 days at 28 C, 100% control, read-out: MIC (mg/L) Trichophyton rubrum
Method: as §2

[8] = tested on: Penicillium expansum; experiment: Blue mold on apple and pear, volatile assay (Example 25); conditions: 50 mg/L, day 3 at 21 C after 5 days at 1 C
Method: Two apples, pears or oranges are placed in a clamshell, and three fresh wounds are made near the equatorial region of each fruit. Each fruit wound is then inoculated with 20 μL of 1×10^6 spores per mL of Penicillium expansum or digitatum suspension, respectively. The inoculum is allowed to dry for two hours prior to treatment application as a volatile or contact.
Volatile Assay: Clamshells are then placed at the bottom of a 2.55-L SnapWare airtight container (Model #109842). […] The solutions are pipetted into Whatman filter disks mounted to the inside lid of the container. The chambers are then incubated at 1° C. for 5 days, removed to 21° C., and evaluated on day 3 by determining the diameter (mm) of rot development (browning) or sporulation.

OB1OCc2cc(F)ccc21 [Compound A, 5-fluoro-1,3-dihydro-1-hydroxy-2,1-benzoxaborole]
Gray Mold Incidence (%) ([1]; Inoculated Fruit, Day 0): 0.0% | Gray Mold Severity (0-4) ([1]; Inoculated Fruit, Day 0): 0.0 | Gray Mold Incidence (%) ([1]; Inoculated Fruit, Day 1): 0.0% | Gray Mold Severity (0-4) ([1]; Inoculated Fruit, Day 1): 0.0 | Gray Mold Incidence (%) ([1]; Inoculated Fruit, Day 2): 0.0% | Gray Mold Severity (0-4) ([1]; Inoculated Fruit, Day 2): 0.0 | Gray Mold Incidence (%) ([1]; Inoculated Fruit, Day 3): 0.0% | Gray Mold Severity (0-4) ([1]; Inoculated Fruit, Day 3): 0.0 | Gray Mold Incidence (%) ([1]; Inoculated Fruit, Day 4): 0.0% | Gray Mold Severity (0-4) ([1]; Inoculated Fruit, Day 4): 0.0 | Gray Mold Incidence (%) ([1]; Inoculated Fruit, Day 5): 16.7% | Gray Mold Severity (0-4) ([1]; Inoculated Fruit, Day 5): 0.1 | Gray Mold Incidence (%) ([1]; Inoculated Fruit, Day 6): 18.8% | Gray Mold Severity (0-4) ([1]; Inoculated Fruit, Day 6): 0.2 | Gray Mold Incidence (%) ([1]; Inoculated Fruit, Day 7): 16.7% | Gray Mold Severity (0-4) ([1]; Inoculated Fruit, Day 7): 0.3 | Gray Mold Incidence (%) ([1]; Uninoculated Fruit, Day 0): 0.0% | Gray Mold Severity (0-4) ([1]; Uninoculated Fruit, Day 0): 0.0 | Gray Mold Incidence (%) ([1]; Uninoculated Fruit, Day 1): 2.6% | Gray Mold Severity (0-4) ([1]; Uninoculated Fruit, Day 1): 0.4 | Gray Mold Incidence (%) ([1]; Uninoculated Fruit, Day 2): 0.1% | Gray Mold Severity (0-4) ([1]; Uninoculated Fruit, Day 2): 1.0 | Gray Mold Incidence (%) ([1]; Uninoculated Fruit, Day 3): 26.3% | Gray Mold Severity (0-4) ([1]; Uninoculated Fruit, Day 3): 1.0 | Gray Mold Incidence (%) ([1]; Uninoculated Fruit, Day 4): 34.1% | Gray Mold Severity (0-4) ([1]; Uninoculated Fruit, Day 4): 1.0 | Gray Mold Incidence (%) ([1]; Uninoculated Fruit, Day 5): 40.0% | Gray Mold Severity (0-4) ([1]; Uninoculated Fruit, Day 5): 1.3 | Gray Mold Incidence (%) ([1]; Uninoculated Fruit, Day 6): 43.3% | Gray Mold Severity (0-4) ([1]; Uninoculated Fruit, Day 6): 1.3 | Gray Mold Incidence (%) ([1]; Uninoculated Fruit, Day 7): 54.1% | Gray Mold Severity (0-4) ([1]; Uninoculated Fruit, Day 7): 1.6 | Incidence (%) ([2]; Rate 0.012 mg/L, Cardboard): 100.0% | Incidence (%) ([2]; Rate 0.012 mg/L, Clamshell): 100.0% | Incidence (%) ([2]; Rate 0.012 mg/L, Polyethylene): 99.0% | Incidence (%) ([2]; Rate 0.06 mg/L, Cardboard): 91.7% | Incidence (%) ([2]; Rate 0.06 mg/L, Clamshell): 100.0% | Incidence (%) ([2]; Rate 0.06 mg/L, Polyethylene): 86.7% | Incidence (%) ([2]; Rate 0.3 mg/L, Cardboard): 9.3% | Incidence (%) ([2]; Rate 0.3 mg/L, Clamshell): 4.1% | Incidence (%) ([2]; Rate 0.3 mg/L, Polyethylene): 4.9% | MIC [3]: < 0.08 mg/L | MIC [4]: 0.4 mg/L (≈ 2.63 µM) | MIC [5]: 2 mg/L (≈ 13.2 µM) | MIC [6]: 2 mg/L (≈ 13.2 µM) | MIC [7]: 2 mg/L (≈ 13.2 µM) | Apple Browning (mm) [8]: 0.4 mm | Apple Sporulation (mm) [8]: 0.0 mm | Pear Browning (mm) [8]: 5.7 mm | Pear Sporulation (mm) [8]: 0.0 mm
